{"source": "ChEMBL document CHEMBL1629606", "about": "“In vitro and in vivo properties of ellagic acid in malaria treatment” (Antimicrob Agents Chemother, 2009)", "key": {"Plasmodium falciparum [1]": {"tested_on": "Plasmodium falciparum", "test": "Antiplasmodial activity against Plasmodium falciparum FcM29", "format": "functional, organism-based"}, "Plasmodium falciparum [2]": {"tested_on": "Plasmodium falciparum", "test": "Antiplasmodial activity against Plasmodium falciparum F32", "format": "functional, organism-based"}, "Plasmodium falciparum [3]": {"tested_on": "Plasmodium falciparum", "test": "Antiplasmodial activity against Plasmodium falciparum W2", "format": "functional, organism-based"}, "Plasmodium falciparum [4]": {"tested_on": "Plasmodium falciparum", "test": "Antiplasmodial activity against Plasmodium falciparum Dd2", "format": "functional, organism-based"}, "[5]": {"tested_on": "Plasmodium vinckei petteri", "test": "Antiplasmodial activity against Plasmodium vinckei petteri infected in Swiss mouse assessed as recrudescence of malaria at 100 mg/kg/day, ip measured upto day 60 postinfection", "format": "functional, organism-based"}, "Plasmodium falciparum [6]": {"tested_on": "Plasmodium falciparum", "test": "Antiplasmodial activity against chloroquine-resistant Plasmodium falciparum W2 in presence of artemisinin", "format": "functional"}, "[7]": {"tested_on": "Plasmodium vinckei petteri", "test": "Antiplasmodial activity against Plasmodium vinckei petteri infected in Swiss mouse assessed as inhibition of parasite growth at 1 mg/kg/day, po measured on day 4 postinfection", "format": "functional, organism-based"}, "[8]": {"tested_on": "Plasmodium vinckei petteri", "test": "Antiplasmodial activity against Plasmodium vinckei petteri infected in Swiss mouse assessed as survival at 10 mg/kg, ip treated 4 days before infection measured on day 6 postinfection", "format": "functional, organism-based", "design": "dose 10 mg/kg"}, "Mus musculus [9]": {"tested_on": "Mus musculus", "test": "Toxicity in Swiss mouse at 1000 mg/kg/day, po for 4 days measured upto day 30", "format": "organism-based", "design": "route oral", "details": "in vivo, 96 h"}, "Mus musculus [10]": {"tested_on": "Mus musculus", "test": "Toxicity in Swiss mouse at 1000 mg/kg/day, ip for 4 days measured upto day 30", "format": "organism-based", "design": "route intraperitoneal", "details": "in vivo, 96 h"}, "Mus musculus [11]": {"tested_on": "Mus musculus", "test": "Toxicity in Swiss mouse at 250 mg/kg/day, po for 4 days measured upto day 30", "format": "organism-based", "design": "route oral", "details": "in vivo, 96 h"}, "Plasmodium falciparum [12]": {"tested_on": "Plasmodium falciparum", "test": "Antiplasmodial activity against chloroquine-resistant Plasmodium falciparum W2 in presence of mefloquine", "format": "functional"}, "[13]": {"tested_on": "Plasmodium vinckei petteri", "test": "Antiplasmodial activity against Plasmodium vinckei petteri infected in Swiss mouse assessed as inhibition of parasite growth at 50 mg/kg/day, ip measured on day 4 postinfection", "format": "functional", "details": "96 h, route intraperitoneal"}, "MRC5": {"tested_on": "MRC5", "test": "Cytotoxicity against human MRC5 cells at 100 uM by MTS assay", "format": "cell-based", "details": "mrc5, 100 µM"}, "Mus musculus [14]": {"tested_on": "Mus musculus", "test": "Toxicity in Swiss mouse at 500 mg/kg/day, ip for 4 days measured upto day 30", "format": "organism-based", "design": "route intraperitoneal", "details": "in vivo, 96 h"}, "Plasmodium falciparum [15]": {"tested_on": "Plasmodium falciparum", "test": "Antiplasmodial activity against chloroquine-resistant Plasmodium falciparum W2 in presence of atovaquone", "format": "functional"}, "Plasmodium falciparum [16]": {"tested_on": "Plasmodium falciparum", "test": "Antiplasmodial activity against chloroquine-resistant Plasmodium falciparum W2 in presence of chloroquine", "format": "functional"}, "Plasmodium falciparum [17]": {"tested_on": "Plasmodium falciparum", "test": "Antiplasmodial activity against […] Plasmodium falciparum Dd2 assessed as 50% revertant concentration required for mefloquine resistant", "format": "functional"}, "Mus musculus [18]": {"tested_on": "Mus musculus", "test": "Toxicity in Swiss mouse at 250 mg/kg/day, ip for 4 days measured upto day 30", "format": "organism-based", "design": "route intraperitoneal", "details": "in vivo, 96 h"}, "Vero": {"tested_on": "Vero", "test": "Cytotoxicity against Vero cells at 100 uM by MTS assay", "format": "cell-based", "details": "chlorocebus sabaeus"}, "Plasmodium falciparum [19]": {"tested_on": "Plasmodium falciparum", "test": "Antiplasmodial activity against Plasmodium falciparum FcB1", "format": "functional, organism-based", "details": "FcB1/Columbia"}, "[20]": {"tested_on": "Plasmodium vinckei petteri", "test": "Antiplasmodial activity against Plasmodium vinckei petteri infected in Swiss mouse assessed as recrudescence of malaria at 50 mg/kg/day, ip measured upto day 60 postinfection", "format": "functional, organism-based"}, "[21]": {"tested_on": "Plasmodium vinckei petteri", "test": "Antiplasmodial activity against Plasmodium vinckei petteri infected in Swiss mouse assessed as recrudescence of malaria at 5 mg/kg/day, ip measured upto day 60 postinfection", "format": "functional, organism-based"}, "[22]": {"tested_on": "Plasmodium vinckei petteri", "test": "Antiplasmodial activity against Plasmodium vinckei petteri infected in Swiss mouse assessed as mortality at 100 mg/kg, po treated 4 days after infection measured on day 7 postinfection", "format": "functional, organism-based", "design": "dose 100 mg/kg"}, "Mus musculus [23]": {"tested_on": "Mus musculus", "test": "Toxicity in Swiss mouse at 100 mg/kg/day, ip for 4 days measured upto day 30", "format": "organism-based", "design": "route intraperitoneal", "details": "in vivo, 96 h"}, "[24]": {"tested_on": "Plasmodium vinckei petteri", "test": "Antiplasmodial activity against Plasmodium vinckei petteri infected in Swiss mouse assessed as survival at 10 mg/kg, ip treated 4 days before infection measured on day 9 postinfection", "format": "functional, organism-based", "design": "dose 10 mg/kg"}, "Mus musculus [25]": {"tested_on": "Mus musculus", "test": "Toxicity in Swiss mouse at 500 mg/kg/day, po for 4 days measured upto day 30", "format": "organism-based", "design": "route oral", "details": "in vivo, 96 h"}, "KB": {"tested_on": "KB", "test": "Cytotoxicity against human KB cells at 100 uM by MTS assay", "format": "cell-based"}, "[26]": {"tested_on": "Plasmodium vinckei petteri", "test": "Antiplasmodial activity against Plasmodium vinckei petteri infected in Swiss mouse assessed as inhibition of parasite growth at 100 mg/kg/day, ip measured on day 5 postinfection", "format": "functional", "details": "120 h, route intraperitoneal"}, "Plasmodium falciparum [27]": {"tested_on": "Plasmodium falciparum", "test": "Antiplasmodial activity against chloroquine-resistant Plasmodium falciparum W2 in presence of artesunate", "format": "functional"}, "[28]": {"tested_on": "Plasmodium vinckei petteri", "test": "Antiplasmodial activity against Plasmodium vinckei petteri infected in Swiss mouse assessed as inhibition of parasite growth at 50 mg/kg/day, po measured on day 4 postinfection", "format": "functional, organism-based"}, "Plasmodium falciparum [29]": {"tested_on": "Plasmodium falciparum", "test": "Antiplasmodial activity against Plasmodium falciparum FcM29 assessed as inhibition of parasite growth at 180 nM in presence of 0.87 uM N-acetyl-L-cysteine", "format": "functional, organism-based"}, "Monocyte": {"tested_on": "Monocyte", "test": "Antioxidant activity in human Monocyte assessed as reduced in PMA-induced ROS production at 3.3 uM by chemiluminescence assay", "format": "functional, cell-based"}, "Mus musculus [30]": {"tested_on": "Mus musculus", "test": "Toxicity in Swiss mouse at 100 mg/kg/day, po for 4 days measured upto day 30", "format": "organism-based", "design": "route oral", "details": "in vivo, 96 h"}, "[31]": {"tested_on": "Plasmodium vinckei petteri", "test": "Antiplasmodial activity against Plasmodium vinckei petteri infected in Swiss mouse assessed as inhibition of parasite growth at 100 mg/kg/day, po measured on day 5 postinfection", "format": "functional, organism-based"}, "Plasmodium falciparum [32]": {"tested_on": "Plasmodium falciparum", "test": "Antiplasmodial activity against chloroquine-resistant Plasmodium falciparum W2 assessed as 50% revertant concentration required for chloroquine susceptibility", "format": "functional"}}, "note": "The source made the active and inactive calls. No cut-off for these calls is given here."}
{"compound": "C[C@@H]1CC[C@H]2[C@@H](C)C(=O)O[C@@H]3O[C@@]4(C)CC[C@@H]1[C@]32OO4", "note": "[ARTEMISININ]", "values": [{"measurement": "IC50", "setting": "Plasmodium falciparum [1]", "value": 12.2, "unit": "nM"}, {"measurement": "IC50", "setting": "Plasmodium falciparum [2]", "value": 12.5, "unit": "nM"}, {"measurement": "IC50", "setting": "Plasmodium falciparum [3]", "value": 13.3, "unit": "nM"}, {"measurement": "IC50", "setting": "Plasmodium falciparum [4]", "value": 13.5, "unit": "nM"}]}
{"compound": "O=c1oc2c(O)c(O)cc3c(=O)oc4c(O)c(O)cc1c4c23", "note": "[ELLAGIC ACID]", "values": [{"measurement": "Activity", "setting": "[5]", "value": "Active"}, {"measurement": "FIC50", "setting": "Plasmodium falciparum [6]", "value": 1.26}, {"measurement": "Activity", "setting": "[7]", "value": "Active"}, {"measurement": "Activity", "setting": "[8]", "value": "Active"}, {"measurement": "Activity", "setting": "Mus musculus [9]", "value": "Non-toxic"}, {"measurement": "Activity", "setting": "Mus musculus [10]", "value": "Non-toxic"}, {"measurement": "Activity", "setting": "Mus musculus [11]", "value": "Non-toxic"}, {"measurement": "FIC50", "setting": "Plasmodium falciparum [12]", "value": 0.64}, {"measurement": "inhibition in vivo at 50 mg/kg/day", "setting": "[13]", "value": 100, "unit": "%"}, {"measurement": "IC50", "setting": "Plasmodium falciparum [1]", "value": 180, "unit": "nM"}, {"measurement": "Activity", "setting": "MRC5", "value": "Non-toxic"}, {"measurement": "Activity", "setting": "Mus musculus [14]", "value": "Non-toxic"}, {"measurement": "FIC50", "setting": "Plasmodium falciparum [15]", "value": 0.53}, {"measurement": "FIC50", "setting": "Plasmodium falciparum [16]", "value": 0.63}, {"measurement": "Activity", "setting": "Plasmodium falciparum [17]", "value": 5, "unit": "ng/mL"}, {"measurement": "Activity", "setting": "Mus musculus [18]", "value": "Non-toxic"}, {"measurement": "Activity", "setting": "Vero", "value": "Non-toxic"}, {"measurement": "IC50", "setting": "Plasmodium falciparum [19]", "value": 300, "unit": "nM"}, {"measurement": "Activity", "setting": "[20]", "value": "Active"}, {"measurement": "Activity", "setting": "[21]", "value": "Active"}, {"measurement": "Activity", "setting": "[22]", "value": "inactive"}, {"measurement": "Activity", "setting": "Mus musculus [23]", "value": "Non-toxic"}, {"measurement": "IC50", "setting": "Plasmodium falciparum [2]", "value": 330, "unit": "nM"}, {"measurement": "Activity", "setting": "[24]", "value": "Active"}, {"measurement": "IC50", "setting": "Plasmodium falciparum [3]", "value": 330, "unit": "nM"}, {"measurement": "Activity", "setting": "Mus musculus [25]", "value": "Non-toxic"}, {"measurement": "Activity", "setting": "KB", "value": "Non-toxic"}, {"measurement": "IC50", "setting": "Plasmodium falciparum [4]", "value": 105, "unit": "nM"}, {"measurement": "inhibition in vivo at 100 mg/kg/day", "setting": "[26]", "value": 100, "unit": "%"}, {"measurement": "FIC50", "setting": "Plasmodium falciparum [27]", "value": 0.57}, {"measurement": "Activity", "setting": "[28]", "value": "Active"}, {"measurement": "Activity", "setting": "Plasmodium falciparum [29]", "value": "inactive"}, {"measurement": "Activity", "setting": "Monocyte", "value": "Active"}, {"measurement": "Activity", "setting": "Mus musculus [30]", "value": "Non-toxic"}, {"measurement": "Activity", "setting": "[31]", "value": "Active"}]}
{"compound": "OC1(c2ccc(Cl)c(C(F)(F)F)c2)CCN(CCCC(c2ccc(F)cc2)c2ccc(F)cc2)CC1", "note": "[PENFLURIDOL]", "values": [{"measurement": "Activity", "setting": "Plasmodium falciparum [17]", "value": 96, "unit": "ng/mL"}]}
{"compound": "COc1ccc(CCN(C)CCCC(C#N)(c2ccc(OC)c(OC)c2)C(C)C)cc1OC", "note": "(stereo unspecified) [VERAPAMIL]", "values": [{"measurement": "Activity", "setting": "Plasmodium falciparum [32]", "value": 0.31, "unit": "µM"}]}
